# Where two headings read alike, the source gives them in different places.
# How the values were obtained:
# [1] = system: humanen Xenograft-Modellen; assay: In vivo activity in xenograft models; parameters: species or system human; settings: Hautkrebs, Nierenzellkarzinom und Brustkrebs
# Text: Die in vivo Aktivität der Verbindung 2 wurde an verschiedenen humanen Xenograft-Modellen überprüft.
# [2] = type: in vivo, Mäuse (CD-1 Mausstamm); settings: for Effekte 7 Tage nach Gabe / Effekte 1 h nach Gabe / Effekte 2 h nach Gabe / Effekte 24 h nach Gabe / Temp. (rektal): single dose; for Temp. (rektal): measured 1 hour after application
# Protocol: Zur Beurteilung und Abschätzung möglicher Nebenwirkungen (neurodegenerative, phsychotrope Effekte etc.) bzw. toxischer Effekte ausgehend von der Verbindung 2 wurden Mäuse (CD-1 Mausstamm) in einem modifizierten Irwin-Grid Modell bei einmaliger Gabe (5, 10 und 20 mg/kg; p.o.) über eine Zeitdauer von 7 Tagen beobachtet (S. Irwin et al. Psychopharmacologia 1968, 13, 222-257). Die Ergebnisse hierzu werden in nachfolgender Tabelle 7 gezeigt: Tabelle 7: […]
smiles,measurement,setting,value
"O=C(Nc1ccc2ncccc2c1)C(=O)c1cn(Cc2ccc(Cl)cc2)c2ccccc12 [Verbindung 2, 2-[1-(4-Chlor-benzyl)-1 H-indol-3-yl]-2-oxo-N-chinolin-6-yl-acetamid]",Tumorwachstum in Xenograft-Modellen,[1],das Tumorwachstum in verschiedenen Xenograft-Modellen hemmt
same,Effekte 7 Tage nach Gabe,[2]; 5 mg/kg p.o.,Kein Effekt
same,Effekte 1 h nach Gabe,[2]; 5 mg/kg p.o.,Kein Effekt
same,Effekte 2 h nach Gabe,[2]; 5 mg/kg p.o.,Kein Effekt
same,Effekte 24 h nach Gabe,[2]; 5 mg/kg p.o.,2/6 Durchfall
same,Temp. (rektal),[2]; 5 mg/kg p.o.,37.5 ± 0.2
same,Effekte 7 Tage nach Gabe,[2]; 10 mg/kg p.o.,Kein Effekt
same,Effekte 1 h nach Gabe,[2]; 10 mg/kg p.o.,1/6 Aufregung 1/6 Hyperreaktivität 1/6 Reizbarkeit 2/6 Berührungsrea ktivität 1/6 Stimmfähigkeit
same,Effekte 2 h nach Gabe,[2]; 10 mg/kg p.o.,2/6 Schwanzhypert onie 1/6 Hyperreaktivität 1/6 Reizbarkeit 1/6 Berührungsrea ktivität 1/6 Stimmfähigkeit
same,Effekte 24 h nach Gabe,[2]; 10 mg/kg p.o.,Kein Effekt
same,Temp. (rektal),[2]; 10 mg/kg p.o.,37.1 ± 0.1
same,Effekte 7 Tage nach Gabe,[2]; 20 mg/kg p.o.,Kein Effekt
same,Effekte 1 h nach Gabe,[2]; 20 mg/kg p.o.,Kein Effekt
same,Effekte 2 h nach Gabe,[2]; 20 mg/kg p.o.,Kein Effekt
same,Effekte 24 h nach Gabe,[2]; 20 mg/kg p.o.,1/6 Durchfall
same,Temp. (rektal),[2]; 20 mg/kg p.o.,37.4 ± 0.1
same,toxische Effekte im modifizierten Irwin-Grid Test,"[2]; single dose 5, 10 and 20mg/kg, overall conclusion",keine toxischen Effekte

# — patent EP1484329A1, “Indole derivatives with apoptosis inducing activity” (Zentaris GmbH, priority 2003, dated 2004)
